Measured values: PubChem BioAssay AID330 (DTP/NCI, 2004)
Values joined by “and” are separate entries in the source; they are usually repeats but may differ in a detail not shown here. Identical values can stand only once. Inconclusive results and toxic doses are left out. How the source made its calls: active means survival T/C of 150% or more; inactive means T/C below 125% in these data. Square brackets hold non-standard residues; d marks the D form. Peptide text beside a SMILES is read from it. * marks the point of attachment. ξ: configuration not given here. Cbz = O=C(OCc1ccccc1)*; ξT = CC(O)C(N)C(=O)O

System: P388 leukemia ip, CD2F1 mice, survival T/C
Test: NCI In Vivo Anticancer Drug Screen. Data for tumor model P388 Leukemia (intraperitoneal) in CD2F1 (CDF1) mice
Conditions: endpoint: median survival time, higher = longer survival
Outline: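 Mice carrying the transplanted tumor received test compound or vehicle. Survival was recorded in each group, and the value is the treated-group measurement divided by that of the vehicle-treated control group.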

[1] = dose: 50.0 mg/kg/injection, schedule: Q01DX009 (ip), vehicle: saline with Tween-80
[2] = dose: 100.0 mg/kg/injection, schedule: Q01DX009 (ip), vehicle: saline with Tween-80
[3] = dose: 200.0 mg/kg/injection, schedule: Q01DX009 (ip), vehicle: saline with Tween-80
[4] = dose: 12.5 mg/kg/injection, schedule: Q01DX009 (ip), vehicle: saline
[5] = dose: 50.0 mg/kg/injection, schedule: Q01DX005 (ip), vehicle: saline with Tween-80
[6] = dose: 100.0 mg/kg/injection, schedule: Q01DX005 (ip), vehicle: saline with Tween-80
[7] = dose: 200.0 mg/kg/injection, schedule: Q01DX005 (ip), vehicle: saline with Tween-80
[8] = dose: 6.25 mg/kg/injection, schedule: Q01DX009 (ip), vehicle: saline
[9] = dose: 50.0 mg/kg/injection, schedule: Q01DX009 (ip), vehicle: saline
[10] = dose: 50.0 mg/kg/injection, schedule: Q01DX005 (ip), vehicle: Klucel (hydroxypropylcellulose) (HPC)
[11] = dose: 100.0 mg/kg/injection, schedule: Q01DX005 (ip), vehicle: Klucel (hydroxypropylcellulose) (HPC)
[12] = dose: 200.0 mg/kg/injection, schedule: Q01DX005 (ip), vehicle: Klucel (hydroxypropylcellulose) (HPC)
[13] = dose: 100.0 mg/kg/injection, schedule: Q01DX009 (ip), vehicle: saline
[14] = dose: 60.0 mg/kg/injection, schedule: Q01DX005 (ip), vehicle: saline with Tween-80
[15] = dose: 120.0 mg/kg/injection, schedule: Q01DX005 (ip), vehicle: saline with Tween-80
[16] = dose: 240.0 mg/kg/injection, schedule: Q01DX005 (ip), vehicle: saline with Tween-80

Measured: T/C

Cc1nc2c(n1C)C(=O)c1nc[nH]c(=O)c1C2=O
inactive: dose: 1.75 mg/kg/injection, schedule: Q01DX005 (ip), vehicle: water 102 % of control | dose: 3.5 mg/kg/injection, schedule: Q01DX005 (ip), vehicle: water 92 % of control | dose: 7.0 mg/kg/injection, schedule: Q01DX005 (ip), vehicle: water 96 % of control | dose: 14.0 mg/kg/injection, schedule: Q01DX005 (ip), vehicle: water 96 % of control

COC(=O)C1c2ccc(OC)c(OC)c2C(=O)N2CCc3cc(OC)c(OC)cc3C12 (stereo not drawn)
inactive: dose: 50.0 mg/kg/injection, schedule: Q04DX003 (ip), vehicle: distilled water + Tween-80 93 % of control | dose: 100.0 mg/kg/injection, schedule: Q04DX003 (ip), vehicle: distilled water + Tween-80 96 % of control | dose: 200.0 mg/kg/injection, schedule: Q04DX003 (ip), vehicle: distilled water + Tween-80 87 % of control | dose: 400.0 mg/kg/injection, schedule: Q04DX003 (ip), vehicle: distilled water + Tween-80 110 % of control

O=C(/C=C/c1ccccc1)Oc1ccccc1[N+](=O)[O-]
inactive: dose: 100.0 mg/kg/injection, schedule: Q01DX001 (ip), vehicle: Klucel (hydroxypropylcellulose) (HPC) 92 % of control | dose: 200.0 mg/kg/injection, schedule: Q01DX001 (ip), vehicle: Klucel (hydroxypropylcellulose) (HPC) 93 % of control | dose: 400.0 mg/kg/injection, schedule: Q01DX001 (ip), vehicle: Klucel (hydroxypropylcellulose) (HPC) 92 % of control

CCC[As](CCC)SC1OC(COC(C)=O)C(OC(C)=O)C(OC(C)=O)C1OC(C)=O (stereo not drawn)
inactive: [1] 117 % of control and 88 % of control | [2] 107 % of control and 92 % of control | [3] 110 % of control and 124 % of control

NCCCCC(NC(=O)C(N)CCCN=C(N)N)C(=O)O (stereo not drawn) (H-Arg-Lys-OH; configuration not given here)
inactive: dose: 50.0 mg/kg/injection, schedule: Q01DX005 (ip), vehicle: saline 94 % of control | dose: 100.0 mg/kg/injection, schedule: Q01DX005 (ip), vehicle: saline 106 % of control | dose: 200.0 mg/kg/injection, schedule: Q01DX005 (ip), vehicle: saline 100 % of control

CC1CC(c2ccc3ccccc3c2)NCCNC(c2ccc3ccccc3c2)CC(C)NCCN1 (stereo not drawn)
inactive: dose: 0.09 mg/kg/injection, schedule: Q01DX009 (ip), vehicle: saline 100 % of control | dose: 0.18 mg/kg/injection, schedule: Q01DX009 (ip), vehicle: saline 103 % of control | dose: 0.36 mg/kg/injection, schedule: Q01DX009 (ip), vehicle: saline 102 % of control | dose: 3.12 mg/kg/injection, schedule: Q01DX009 (ip), vehicle: saline 101 % of control | [4] 101 % of control

CCCCCCCCCCCCCCCCS(=O)(=O)N/N=C(/c1ccc(OC)c(OC)c1)N1CCCCC1
inactive: dose: 50.0 mg/kg/injection, schedule: Q01DX009 (ip), vehicle: other 102 % of control | dose: 100.0 mg/kg/injection, schedule: Q01DX009 (ip), vehicle: other 91 % of control | dose: 200.0 mg/kg/injection, schedule: Q01DX009 (ip), vehicle: other 93 % of control

O=c1c(CS(=O)(=O)c2ccccc2)c(-c2ccccc2)c1=O
inactive: dose: 100.0 mg/kg/injection, schedule: Q04DX002 (ip), vehicle: saline with Tween-80 104 % of control | dose: 200.0 mg/kg/injection, schedule: Q04DX002 (ip), vehicle: saline with Tween-80 104 % of control | dose: 400.0 mg/kg/injection, schedule: Q04DX002 (ip), vehicle: saline with Tween-80 97 % of control

O=C1CN(c2ccccc2)C(=O)CN1/N=C/c1ccc(O)c(O)c1
inactive: [5] 93 % of control | [6] 100 % of control | [7] 101 % of control

CC[Si](CC)(CC)OC(C#N)c1ccc2c(c1)OCO2 (stereo not drawn)
inactive: [5] 104 % of control | [6] 104 % of control | [7] 100 % of control

CC(NC(=O)C1CCCN1C(=O)OCc1ccccc1)C(=O)O (stereo not drawn)
inactive: [5] 106 % of control | [6] 100 % of control | [7] 100 % of control

Clc1ccc2nc(C(Cl)(Cl)Cl)nc(NCCN3CCCCC3)c2c1
inactive: [1] 100 % of control | [2] 100 % of control | [3] 90 % of control

CCCCCC(CN(C)C)C(=O)/C=C/c1ccccc1Cl (stereo not drawn)
inactive: [8] 104 % of control | [4] 102 % of control | dose: 25.0 mg/kg/injection, schedule: Q01DX009 (ip), vehicle: saline 93 % of control | [9] 101 % of control

CC(C)CC(NC1=CC(=O)N(c2ccccc2)C1c1ccccc1)c1nc2ccccc2[nH]1 (stereo not drawn)
inactive: [10] 99 % of control | [11] 95 % of control | [12] 95 % of control

CC1C(=O)C(C)C(c2ccccc2Cl)OC1c1ccccc1Cl (stereo not drawn)
inactive: [9] 112 % of control | [13] 102 % of control | dose: 200.0 mg/kg/injection, schedule: Q01DX009 (ip), vehicle: saline 96 % of control

CN(C)c1ccc2c(SCC(=O)Nc3ccc(NS(C)(=O)=O)cc3)c3ccc(N(C)C)cc3nc2c1
inactive: [10] 115 % of control | [11] 117 % of control | [12] 114 % of control

CC(O)C(NC(=O)CNC(=O)CNC(=O)OCc1ccccc1)C(=O)O (stereo not drawn) (Cbz-Gly-Gly-[ξT]-OH)
inactive: [10] 96 % of control | [11] 98 % of control | [12] 95 % of control

O=C(O)c1ccc(OCc2ccccc2)cc1
inactive: [9] 93 % of control | [13] 93 % of control

C=C1C[C@@]2(OC)OCC[C@H]3C(C)=CCC(C1=O)[C@]32C(=O)OC (stereo partly drawn)
inactive: [5] 105 % of control | [6] 105 % of control

CC(C)(C)N1CC1C#N (stereo not drawn)
inactive: dose: 3.13 mg/kg/injection, schedule: Q01DX009 (ip), vehicle: saline 111 % of control | [8] 104 % of control | [4] 101 % of control

COc1ccc2ccc(=O)oc2c1C1=C(C)C(=O)OC1
inactive: dose: 2.0 mg/kg/injection, schedule: Q01DX009 (ip), vehicle: Klucel (hydroxypropylcellulose) (HPC) 108 % of control | dose: 4.0 mg/kg/injection, schedule: Q01DX009 (ip), vehicle: Klucel (hydroxypropylcellulose) (HPC) 100 % of control | dose: 8.0 mg/kg/injection, schedule: Q01DX009 (ip), vehicle: Klucel (hydroxypropylcellulose) (HPC) 98 % of control | dose: 16.0 mg/kg/injection, schedule: Q01DX009 (ip), vehicle: Klucel (hydroxypropylcellulose) (HPC) 108 % of control

C1COCCOCCOCCOCCO1.[Br][Sn]([Br])([Br])[Br]
inactive: dose: 7.5 mg/kg/injection, schedule: Q01DX005 (ip), vehicle: Klucel (hydroxypropylcellulose) (HPC) 96 % of control | dose: 15.0 mg/kg/injection, schedule: Q01DX005 (ip), vehicle: Klucel (hydroxypropylcellulose) (HPC) 102 % of control | dose: 30.0 mg/kg/injection, schedule: Q01DX005 (ip), vehicle: Klucel (hydroxypropylcellulose) (HPC) 105 % of control

COC(=O)C1(CC(=O)C=C(C)C)NC(=S)NC(=O)C1C#N (stereo not drawn)
inactive: dose: 60.0 mg/kg/injection, schedule: Q01DX005 (ip), vehicle: saline 98 % of control | dose: 120.0 mg/kg/injection, schedule: Q01DX005 (ip), vehicle: saline 103 % of control | dose: 240.0 mg/kg/injection, schedule: Q01DX005 (ip), vehicle: saline 98 % of control

CSCCC(NC(=O)c1cnc2ccccc2c1)C(N)=O (stereo not drawn)
inactive: [14] 103 % of control | [15] 97 % of control | [16] 87 % of control

NC(=O)NC1(C(=O)O)CCCC1
inactive: dose: 25.0 mg/kg/injection, schedule: Q01DX009 (ip), vehicle: Klucel (hydroxypropylcellulose) (HPC) 102 % of control | dose: 50.0 mg/kg/injection, schedule: Q01DX009 (ip), vehicle: Klucel (hydroxypropylcellulose) (HPC) 103 % of control | dose: 100.0 mg/kg/injection, schedule: Q01DX009 (ip), vehicle: Klucel (hydroxypropylcellulose) (HPC) 103 % of control | dose: 200.0 mg/kg/injection, schedule: Q01DX009 (ip), vehicle: Klucel (hydroxypropylcellulose) (HPC) 105 % of control

Cc1ccc(S(=O)(=O)CC(=O)CC(=O)C(=O)Nc2cc(C)ccc2C)cc1
inactive: [14] 105 % of control | [15] 108 % of control | [16] 106 % of control
